The record followed here is patent US20240239781A1, “1H-PYRAZOLE DERIVATIVES AS SIGMA LIGANDS” (ACONDICIONAMIENTO TARRASENSE, priority 2021, published 2024).

The target in assay [1] is T1, human σ1 receptor (Homo sapiens, UniProt Q99720).
T1 construct: expressed in transfected cells; host or cells: HEK-293
The assay is described as follows: Human σ1 receptor radioligand assay ([3H](+)-pentazocine, transfected HEK-293 membranes). The note with it: class scale, read-out: Binding σ-1 Ki. The essentials: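 Compounds were tested at a single 1 or 10 μM concentration (% inhibition) or at five concentrations to give Ki. They competed with 5 nM [3H](+)-pentazocine for transfected HEK-293 membranes (7 μg) in 50 mM Tris-HCl pH 8 at 37° C for 120 minutes. Nonspecific binding was set with 10 μM haloperidol, and a filtration scintillation read-out was used.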

For assay [2], the target named is T2, human σ2/TMEM97 receptor (Homo sapiens, UniProt Q5BJF2).
T2 construct: expressed in transfected cells; host or cells: HEK-293
T2 sequence (Q5BJF2 whole entry): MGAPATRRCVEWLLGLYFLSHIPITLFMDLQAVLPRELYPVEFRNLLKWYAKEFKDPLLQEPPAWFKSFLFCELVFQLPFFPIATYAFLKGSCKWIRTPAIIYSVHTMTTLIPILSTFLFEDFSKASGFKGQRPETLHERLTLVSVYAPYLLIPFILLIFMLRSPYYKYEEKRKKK
The assay can be described thus: Binding assay to human σ2/TMEM97 receptor ([3H]-DTG, transfected HEK-293 membranes). The note with it: class scale, read-out: Binding σ-2 Ki. The essentials: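 Competition against 10 nM [3H]-DTG (Tris-HCl 50 mM, pH 8.0, 25 °C, 120 min) using 15 μg transfected HEK-293 membrane protein, with 10 μM haloperidol defining NSB. Bound radioactivity counted after filtration; results as single-point % inhibition (1 or 10 μM) or five-point Ki.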

T1 sequence (Q99720 whole entry): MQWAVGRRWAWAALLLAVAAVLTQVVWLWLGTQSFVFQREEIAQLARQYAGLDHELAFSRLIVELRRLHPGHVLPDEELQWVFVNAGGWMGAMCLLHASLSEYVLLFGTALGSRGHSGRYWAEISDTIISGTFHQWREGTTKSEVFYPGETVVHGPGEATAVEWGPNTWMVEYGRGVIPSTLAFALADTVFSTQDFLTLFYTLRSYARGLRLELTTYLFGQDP

Consider `COc1cccc(-c2nn(C)c(Cl)c2C(=O)N2CCC3(CCN(CCC(C)(C)C)CC3)CC2)n1` [Example 102, (5-Chloro-3-(6-methoxypyridin-2-yl)-1-methyl-1H-pyrazol-4-yl)(9-(3,3-dimethylbutyl)-3,9-diazaspiro[5.5]undecan-3-yl)methanone], for which the Ki in assay [1] was 100 to 500 nM; in assay [2] it was < 100 nM.

For the molecule `Cc1conc1-c1nn(C)c(Cl)c1C(=O)N1CCCC2(CCN(CCC(C)(C)C)CC2)C1` [Example 103, (5-Chloro-1-methyl-3-(4-methylisoxazol-3-yl)-1H-pyrazol-4-yl)(9-(3,3-dimethylbutyl)-2,9-diazaspiro[5.5]undecan-2-yl)methanone], the Ki was 500 to 1000 nM in assay [1] and < 100 nM in assay [2].

As for `Cc1cc(-c2nn(C)c(Cl)c2C(=O)N2CC3(CCN(CCC(C)(C)C)CC3)C2)no1` [Example 104, (5-Chloro-1-methyl-3-(5-methylisoxazol-3-yl)-1H-pyrazol-4-yl)(7-(3,3-dimethylbutyl)-2,7-diazaspiro[3.5]nonan-2-yl)methanone], the Ki in assay [1] and in assay [2] was 100 to 500 nM throughout.

As for `Cc1cc(-c2nn(C)c(Cl)c2C(=O)N2CCC3(CN(CCC(C)(C)C)C3)C2)no1` [Example 105, (5-Chloro-1-methyl-3-(5-methylisoxazol-3-yl)-1H-pyrazol-4-yl)(2-(3,3-dimethylbutyl)-2,6-diazaspiro[3.4]octan-6-yl)methanone], the values for the Ki in assay [1] and in assay [2] were > 1000 nM and 100 to 500 nM, respectively.

`Cc1cc(-c2nn(C)c(Cl)c2C(=O)NC2CC3(CCN(CCC(C)(C)C)CC3)C2)no1` [Example 106, 5-Chloro-N-(7-(3,3-dimethylbutyl)-7-azaspiro[3.5]nonan-2-yl)-1-methyl-3-(5-methylisoxazol-3-yl)-1H-pyrazole-4-carboxamide]: the results for the Ki in assay [1] and in assay [2] were 100 to 500 nM and < 100 nM, respectively.

For `Cc1cc(-c2nn(C)c(Cl)c2C(=O)NC2CCC3(CC2)CCN(CCC(C)(C)C)CC3)no1` [Example 107, 5-Chloro-N-(3-(3,3-dimethylbutyl)-3-azaspiro[5.5]undecan-9-yl)-1-methyl-3-(5-methylisoxazol-3-yl)-1H-pyrazole-4-carboxamide], the Ki is 100 to 500 nM in assay [1] and < 100 nM in assay [2].

For the molecule `Cc1cc(-c2nn(C)c(Cl)c2C(=O)N2CCC[C@@H](NCCC(C)C)C2)no1` [Example 108, (R)-(5-Chloro-1-methyl-3-(5-methylisoxazol-3-yl)-1H-pyrazol-4-yl)(3-(isopentylamino)piperidin-1-yl)methanone], the Ki in assay [1] is 100 to 500 nM; in assay [2] it was > 1000 nM.

On to `Cc1cc(-c2nn(C)c(Cl)c2C(=O)N2CCC[C@H](NCCC(C)C)C2)no1` [Example 109, (S)-(5-Chloro-1-methyl-3-(5-methylisoxazol-3-yl)-1H-pyrazol-4-yl)(3-(isopentylamino)piperidin-1-yl)methanone], for which the Ki in assay [1] and in assay [2] was > 1000 nM throughout.

Turning to `Cc1cc(-c2nn(C)c(Cl)c2C(=O)N2CCCCC(N(C)CCc3ccccc3)C2)no1` (stereo not drawn) [Example 110, (5-Chloro-1-methyl-3-(5-methylisoxazol-3-yl)-1H-pyrazol-4-yl)(3-(methyl(phenethyl)amino)azepan-1-yl)methanone], the Ki in assay [1] was in the range of 500 to 1000 nM; in assay [2], 100 to 500 nM.

In the case of `Cc1cc(-c2nn(C)c(Cl)c2C(=O)N2CCCCC(N(C)CCC(C)C)C2)no1` (stereo not drawn) [Example 111, (5-Chloro-1-methyl-3-(5-methylisoxazol-3-yl)-1H-pyrazol-4-yl)(3-(isopentyl(methyl)amino)azepan-1-yl)methanone], the Ki was 100 to 500 nM in assay [1] and 500 to 1000 nM in assay [2].

`Cc1cc(-c2nn(C)c(Cl)c2C(=O)N2CCC3(CCN(CC(=O)N4CCCCC4)CC3)CC2)no1` [Example 112, 2-(9-(5-Chloro-1-methyl-3-(5-methylisoxazol-3-yl)-1H-pyrazole-4-carbonyl)-3,9-diazaspiro[5.5]undecan-3-yl)-1-(piperidin-1-yl)ethanone]: the Ki in assay [1] is > 1000 nM; in assay [2] it was 100 to 500 nM.

In the case of `Cc1cc(-c2nn(C)c(Cl)c2C(=O)N2CCC3(CCN(CC(=O)N4CCC(F)(F)CC4)CC3)CC2)no1` [Example 113, 2-(9-(5-Chloro-1-methyl-3-(5-methylisoxazol-3-yl)-1H-pyrazole-4-carbonyl)-3,9-diazaspiro[5.5]undecan-3-yl)-1-(4,4-difluoropiperidin-1-yl)ethanone], the Ki in assay [1] is > 1000 nM; in assay [2] it was 100 to 500 nM.

For `Cc1cc(-c2nn(C)c(Cl)c2CN2CCC3(CCN(CCC(C)(C)C)CC3)C2=O)no1` [Example 114, 2-((5-Chloro-1-methyl-3-(5-methylisoxazol-3-yl)-1H-pyrazol-4-yl)methyl)-8-(3,3-dimethylbutyl)-2,8-diazaspiro[4.5]decan-1-one], the Ki in assay [1] and in assay [2] was 100 to 500 nM each time.

`Cc1cc(-c2nn(C)c(Cl)c2CN2CCC3(CCN(CCC(C)(C)C)CC3)CC2=O)no1` [Example 115, 3-((5-Chloro-1-methyl-3-(5-methylisoxazol-3-yl)-1H-pyrazol-4-yl)methyl)-9-(3,3-dimethylbutyl)-3,9-diazaspiro[5.5]undecan-2-one]: the Ki in assay [1] was 100 to 500 nM; in assay [2], < 100 nM.

For the molecule `Cc1cc(-c2nn(C)c(Cl)c2CN2CC3(CCN(CCC(C)(C)C)CC3)CC2=O)no1` [Example 116, 2-((5-Chloro-1-methyl-3-(5-methylisoxazol-3-yl)-1H-pyrazol-4-yl)methyl)-8-(3,3-dimethylbutyl)-2,8-diazaspiro[4.5]decan-3-one], the results for the Ki in assay [1] and in assay [2] were 100 to 500 nM and < 100 nM, respectively.

On to `Cc1cc(-c2nn(C)c(Cl)c2CN2CCCCC(NCCC(C)C)C2=O)no1` (stereo not drawn) [Example 117, 1-((5-Chloro-1-methyl-3-(5-methylisoxazol-3-yl)-1H-pyrazol-4-yl)methyl)-3-(isopentylamino)azepan-2-one], for which the Ki in assay [1] was 100 to 500 nM; in assay [2], > 1000 nM.

As for `Cc1cc(-c2nn(C)c(Cl)c2CN2CCCC(NCCC(C)C)CC2=O)no1` (stereo not drawn) [Example 118, 1-((5-Chloro-1-methyl-3-(5-methylisoxazol-3-yl)-1H-pyrazol-4-yl)methyl)-4-(isopentylamino)azepan-2-one], the Ki in assay [1] was > 1000 nM; in assay [2], 100 to 500 nM.

On to `Cc1cc(-c2nn(C)c(Cl)c2CCN2CCCC[C@H](NCCC(C)C)C2)no1` [Example 119, (S)-1-(2-(5-Chloro-1-methyl-3-(5-methylisoxazol-3-yl)-1H-pyrazol-4-yl)ethyl)-N-isopentylazepan-3-amine], for which the Ki was < 100 nM in assay [1] and 100 to 500 nM in assay [2].

In the case of `Cc1cc(-c2nn(C)c(Cl)c2CC(=O)N2CCC3(CCN(CCC(C)C)CC3)CC2)no1` [Example 120], the values for the Ki in assay [1] and in assay [2] were 100 to 500 nM and < 100 nM, respectively.

Regarding `Cc1cc(-c2nn(C)c(Cl)c2C(=O)N2CCCC(CN(C)CCC(C)(C)C)C2)no1` (stereo not drawn) [Example 121, (5-Chloro-1-methyl-3-(5-methylisoxazol-3-yl)-1H-pyrazol-4-yl)(3-(((3,3-dimethylbutyl)(methyl)amino)methyl)piperidin-1-yl)methanone], the Ki in assay [1] and in assay [2] was 100 to 500 nM each time.

For `Cc1cc(-c2nn(C)c(Cl)c2C(=O)N2CCCC(CN(C)CC(C)C)C2)no1` (stereo not drawn) [Example 122, (5-Chloro-1-methyl-3-(5-methylisoxazol-3-yl)-1H-pyrazol-4-yl)(3-((isobutyl(methyl)amino)methyl)piperidin-1-yl)methanone], the Ki in assay [1] and in assay [2] was > 1000 nM throughout.

As a reminder, the Ki is a measure of affinity in units of concentration, obtained from inhibition or displacement.
